Source: US10105357B2, “Indication of antibiotic drugs for preparation of cancer inhibition pharmaceutical composition” (LAUNX BIOMEDICAL CO., LTD., priority 2014, dated 2018)
Read-outs that look alike come from different tables or passages of the source.

Legend:
[1] = tested on: TSGH-8301 (Urinary Bladder Carcinoma); assay: Cell viability analysis, bladder cancer TSGH-8301; type: cell-based, human; conditions: Homo sapiens, 72 h
[2] = tested on: 786-O (Renal adenocarcinoma); assay: Cell viability analysis, renal cancer 786-O; type: cell-based, human; conditions: Homo sapiens, 786-0, 72 h; 786-O; repeated experiment; read-out: The results of antibiotic drug inhibiting cancer cell lines (cell viability analysis), 786-O
[3] = tested on: SAS (Tongue squamous cell carcinoma); assay: Cell viability analysis, tongue cancer SAS; type: cell-based, human; conditions: Homo sapiens, 72 h; SAS; repeated experiment; read-out: The results of antibiotic drug inhibiting cancer cell lines (cell viability analysis), SAS
[4] = tested on: LoVo (Colorectal Adenocarcinoma); assay: Cell viability analysis, colon cancer LoVo; type: cell-based, human; conditions: Homo sapiens, LoVo, 72 h
[5] = tested on: MDA-MB-231 (Mammary Gland, Adenocarcinoma); assay: Cell viability analysis, breast cancer MDA-MB-231; type: cell-based, human; conditions: Homo sapiens, MDA-MB-231, 72 h; MDA-MB231; repeated experiment; read-out: The results of antibiotic drug inhibiting cancer cell lines (cell viability analysis), MDA-MB231
[6] = tested on: C-33A (Cervical carcinoma); assay: Cell viability analysis, cervical cancer C-33A; type: cell-based, human; conditions: Homo sapiens, 72 h; C-33A; repeated experiment; read-out: The results of antibiotic drug inhibiting cancer cell lines (cell viability analysis), C-33A
[7] = tested on: HeLa (Cervix Adenocarcinoma); assay: Cell viability analysis, cervical cancer HeLa; type: cell-based, human; conditions: Homo sapiens, HeLa, 72 h, HeLa
[8] = tested on: MKN-45 (Gastric Adenocarcinoma); assay: Cell viability analysis, gastric cancer MKN-45; type: cell-based, human; conditions: Homo sapiens, MKN-45, 72 h
[9] = tested on: HepG2 (Hepatocellular Carcinoma); assay: Cell viability analysis, hepatic cancer HepG2; type: cell-based, human; conditions: Homo sapiens, HepG2, 72 h
[10] = tested on: cancer cell lines; assay: Cell viability analysis (WST-1) on cancer cell lines; type: cell-based, human; conditions: drug 10 μM, 72 hours, WST-1; Table 3
[11] = tested on: TOV-21G; assay: Cell viability analysis, ovarian cancer TOV-21G; type: cell-based, human; conditions: Homo sapiens, TOV21G, 72 h; TOV-21G; repeated experiment; read-out: The results of antibiotic drug inhibiting cancer cell lines (cell viability analysis), TOV-21G
[12] = tested on: PC3 (p53−) (Prostate Adenocarcinoma); assay: Cell viability analysis, prostate cancer PC3; type: cell-based, human; conditions: Homo sapiens, 72 h
[13] = tested on: HL-60 (Acute Promyelocytic Leukemia); assay: Cell viability analysis, leukemia HL-60; type: cell-based, human; conditions: Homo sapiens, HL-60, 72 h, drug 10 μM, 72 hours, WST-1, OD450 nm; read-out: cell viability (survival rate), HL-60
[14] = tested on: AsPC-1; assay: Cell viability analysis, pancreatic cancer AsPC-1; type: cell-based, human; conditions: Homo sapiens, ASPC1, 72 h; AsPC-1; repeated experiment; read-out: The results of antibiotic drug inhibiting cancer cell lines (cell viability analysis), AsPC-1
[15] = tested on: A549 (Lung Adenocarcinoma); assay: Cell viability analysis, lung cancer A549; type: cell-based, human; conditions: Homo sapiens, A549, 72 h
[16] = tested on: Hep3B (hepatocellular carcinoma); assay: Cell viability analysis, hepatic cancer Hep3B; type: cell-based, human; conditions: Homo sapiens, 72 h; Hep3B; repeated experiment; read-out: The results of antibiotic drug inhibiting cancer cell lines (cell viability analysis), Hep3B
[17] = tested on: HI650 (Lung Adenocarcinoma); assay: Cell viability analysis, lung cancer HI650; type: cell-based, human; conditions: Homo sapiens, NCI-H1650, 72 h
[18] = tested on: HCT116 (p53+) (Colorectal Carcinoma)
[19] = tested on: AGS (Gastric Adenocarcinoma); assay: Cell viability analysis, gastric cancer AGS; type: cell-based, human; conditions: Homo sapiens, 72 h
[20] = tested on: MCF7 (Mammary Gland, Adenocarcinoma); assay: Cell viability analysis, breast cancer MCF7; type: cell-based, human; conditions: Homo sapiens, MCF7, 72 h
[21] = tested on: A375 (Amelanotic Melanoma); assay: Cell viability analysis, skin cancer A375; type: cell-based, human; conditions: Homo sapiens, A-375, 72 h
[22] = tested on: NIH: OVCAR-3; assay: Cell viability analysis, ovarian cancer NIH: OVCAR-3; type: cell-based, human; conditions: Homo sapiens, 72 h; NIH-OVCAR-3; repeated experiment; read-out: The results of antibiotic drug inhibiting cancer cell lines (cell viability analysis), NIH-OVCAR-3
[23] = tested on: BCC (basal cell carcinoma); assay: Cell viability analysis, skin cancer BCC; type: cell-based, human; conditions: Homo sapiens, 72 h; BCC; repeated experiment; read-out: The results of antibiotic drug inhibiting cancer cell lines (cell viability analysis), BCC
[24] = tested on: T24; assay: Cell viability analysis, bladder cancer T24; type: cell-based, human; conditions: Homo sapiens, T-24, 72 h; T24; repeated experiment; read-out: The results of antibiotic drug inhibiting cancer cell lines (cell viability analysis), T24

CC(C)CN(C[C@@H](O)[C@H](Cc1ccccc1)NC(=O)O[C@H]1CCOC1)S(=O)(=O)c1ccc(N)cc1 [Amprenavir (Agenerase), Amprenavir]
viability at 10 µM ([1]; TSGH-8301, repeated experiment, read-out: The results of antibiotic drug inhibiting cancer cell lines (cell viability analysis), TSGH-8301): 96.1%
viability at 10 µM ([1]; drug 10 μM, 72 hours, WST-1, OD450 nm, read-out: cell viability (survival rate), TSGH): 57%
viability at 10 µM [2]: 96.7%
viability at 10 µM [3]: 83.3%
viability at 10 µM ([4]; read-out: The results of antibiotic drug inhibiting cancer cell lines (cell viability analysis), LoVo, repeated experiment): 95.5%
viability at 10 µM ([4]; read-out: cell viability (survival rate), LoVo, drug 10 μM, 72 hours, WST-1, OD450 nm): 77.4%
viability at 10 µM [5]: 83.5%
viability at 10 µM [6]: 109%
viability at 10 µM ([7]; repeated experiment, read-out: The results of antibiotic drug inhibiting cancer cell lines (cell viability analysis), HeLa): 67.9%
viability at 10 µM ([7]; drug 10 μM, 72 hours, WST-1, OD450 nm, read-out: cell viability (survival rate), HeLa): 67.5%
viability at 10 µM ([8]; MKN-45, repeated experiment, read-out: The results of antibiotic drug inhibiting cancer cell lines (cell viability analysis), MKN-45): 103%
viability at 10 µM ([8]; drug 10 μM, 72 hours, WST-1, OD450 nm, read-out: cell viability (survival rate), MKN-45): 52.1%
viability at 10 µM ([9]; HepG2, repeated experiment, read-out: The results of antibiotic drug inhibiting cancer cell lines (cell viability analysis), HepG2): 94.5%
viability at 10 µM ([9]; drug 10 μM, 72 hours, WST-1, OD450 nm, read-out: cell viability (survival rate), HepG2): 90.9%
inhibition effect on different cancer cell lines [10]: significant inhibition effect
viability at 10 µM [11]: 97%
viability at 10 µM ([12]; PC-3, repeated experiment, read-out: The results of antibiotic drug inhibiting cancer cell lines (cell viability analysis), PC-3): 87.4%
viability at 10 µM ([12]; drug 10 μM, 72 hours, WST-1, OD450 nm, read-out: cell viability (survival rate), PC3): 80.4%
viability at 10 µM [13]: 111%
viability at 10 µM [14]: 90.4%
viability at 10 µM ([15]; A549, repeated experiment, read-out: The results of antibiotic drug inhibiting cancer cell lines (cell viability analysis), A549): 79.9%
viability at 10 µM ([15]; drug 10 μM, 72 hours, WST-1, OD450 nm, read-out: cell viability (survival rate), A549): 53.7%
viability at 10 µM [16]: 95.2%
viability at 10 µM ([17]; H1650, repeated experiment, read-out: The results of antibiotic drug inhibiting cancer cell lines (cell viability analysis), H1650): 88.1%
viability at 10 µM ([17]; drug 10 μM, 72 hours, WST-1, OD450 nm, read-out: cell viability (survival rate), H1650): 69.5%
viability [18]: 94.5%
viability at 10 µM ([19]; AGS, repeated experiment, read-out: The results of antibiotic drug inhibiting cancer cell lines (cell viability analysis), AGS): 98.6%
viability at 10 µM ([19]; drug 10 μM, 72 hours, WST-1, OD450 nm, read-out: cell viability (survival rate), AGS): 58.8%
viability at 10 µM ([20]; MCF-7, repeated experiment, read-out: The results of antibiotic drug inhibiting cancer cell lines (cell viability analysis), MCF-7): 68.3%
viability at 10 µM ([20]; drug 10 μM, 72 hours, WST-1, OD450 nm, read-out: cell viability (survival rate), MCF7): 37%
viability at 10 µM ([21]; A375, repeated experiment, read-out: The results of antibiotic drug inhibiting cancer cell lines (cell viability analysis), A375): 88.1%
viability at 10 µM ([21]; drug 10 μM, 72 hours, WST-1, OD450 nm, read-out: cell viability (survival rate), A375): 77.6%
viability at 10 µM [22]: 106%
viability at 10 µM [23]: 74.5%
viability at 10 µM [24]: 90.5%
